Source: publication PMC5379148, “A phase I study of intravenous and oral rucaparib in combination with chemotherapy in patients with advanced solid tumours” (British Journal of Cancer, 2017)

Experiments:
[1] = system: patients with advanced solid tumours; assay: Dose-limiting toxicities in cycle 1 and maximum tolerated dose; type: in vivo, human; conditions: days 1–14, with AUC5 carboplatin day 1, 21-day cycles
Experimental: Initially, at least three patients were treated at each dose level. If no DLT was observed, the dose was escalated for the next cohort of three patients. […] If no further DLT was observed, the next dose level was opened. […] When a dose was concluded to be above the MTD, the preceding lower dose was declared the MTD, but only if six patients had already been treated at this lower dose.
All patients who received at least one dose of study medication were evaluable for toxicity.

[2] = system: patients with advanced solid tumours
From the text: This study was an open-label, multicentre, dose-escalating phase I study of rucaparib administered in combination with one of four different standard chemotherapeutic regimens (NCT01009190). […] The primary objective was to assess safety and tolerability and estimate the maximum tolerated dose (MTD) and/or select the recommended phase II dose of rucaparib in combination with chemotherapy. Secondary objectives were to characterise the pharmacokinetics (PK) and assess the antitumour activity of rucaparib when combined with chemotherapy.
Safety assessments included collection of adverse events (AEs) and serious AEs (defined by National Cancer Institute Common Terminology Criteria for Adverse Events version 3.0; [Pedersen et al, 2013]), as well as vital signs, physical examination, 12-lead electrocardiogram, laboratory assessments, and verification of concurrent medications. Safety variables and demographic data were presented descriptively. The safety analysis set included all enrolled patients who started treatment.

SMILES: CNCc1ccc(-c2[nH]c3cc(F)cc4c3c2CCNC4=O)cc1 [rucaparib]
- MTD of oral rucaparib in the combination [1]: 240 mg once daily (q.d.)
- Patients who died of disease progression while on study ([2]; across treatment arms, assessed as unrelated to study drug): 7.1%
- Anaemia ([2]; human, in vivo): 31 (36.5) n (%)
- Asthenia ([2]; human, in vivo): 3 (3.5) n (%)
- Constipation ([2]; human, in vivo): 22 (25.9) n (%)
- Decreased appetite ([2]; human, in vivo): 17 (20.0) n (%)
- Diarrhoea ([2]; human, in vivo): 17 (20.0) n (%)
- Discontinued treatment with AE as the primary reason ([2]; human, in vivo): 18.4%
- Fatigue ([2]; human, in vivo): 45 (52.9) n (%)
- Grade ⩾3 AEs, patients ([2]; human, in vivo): 75.3%
- Grade ⩾3 anaemia, patients ([2]; human, in vivo): 11.8%
- Grade ⩾3 dyspnoea, patients ([2]; human, in vivo): 5.9%
- Grade ⩾3 fatigue, patients ([2]; human, in vivo): 12.9%
- Grade ⩾3 nausea, patients ([2]; human, in vivo): 7.1%
- Grade ⩾3 neutropenia, patients ([2]; human, in vivo): 27.1%
- Grade ⩾3 thrombocytopenia, patients ([2]; human, in vivo): 18.8%
- Grade ⩾3 vomiting, patients ([2]; human, in vivo): 5.9%
- Grade ⩾3 γ-glutamyltransferase increased, patients ([2]; human, in vivo): 5.9%
- Lethargy ([2]; human, in vivo): 15 (17.6) n (%)
- Leukopenia ([2]; human, in vivo): 7 (8.2) n (%)
- Lymphopenia ([2]; human, in vivo): 6 (7.1) n (%)
- Myalgia ([2]; human, in vivo): 7 (8.2) n (%)
- Nausea ([2]; human, in vivo): 48 (56.5) n (%)
- Neuropathy peripheral ([2]; human, in vivo): 10 (11.8) n (%)
- Neutropenia ([2]; human, in vivo): 32 (37.6) n (%)
- Patients who discontinued treatment because of AEs ([2]; human, in vivo): 25.9%
- Patients who discontinued treatment because of neutropenia ([2]; human, in vivo): 3.5%
- Patients who discontinued treatment because of platinum hypersensitivity ([2]; human, in vivo): 2.4%
- Patients who discontinued treatment because of thrombocytopenia ([2]; human, in vivo): 2.4%
- Stomatitis ([2]; human, in vivo): 14 (16.5) n (%)
- Thrombocytopenia ([2]; human, in vivo): 27 (31.8) n (%)
- Vomiting ([2]; human, in vivo): 28 (32.9) n (%)
- ≥1 treatment-related adverse event ([2]; human, in vivo): 80 (94.1) n (%)
- Alopecia ([2]; treatment-related, any grade, All patients (N = 85), all arms): 15 (17.6) n (%)
